The term MBC denotes the smallest concentration meeting the test's criterion for killing. A higher MBC goes with weaker bactericidal potency. Usually MIC stands for the lowest concentration that inhibits growth of the organism. Low values mean a more susceptible organism, high ones a less susceptible organism.

The source of these data is patent US12280090B2, “Antimicrobial peptides” (priority 2018, dated 2025).

What all share (assay type): cell-based
In assay [1] the test system is Escherichia coli—Carbapenemase-producing organism; Klebsiella pneumoniae carbapenemase. Here is the method:
(§1) Independent experiments were conducted with four strains of E. coli, including ATCC E. coli (Escherichia coli—ATCC 25922 “wild type”); ESBL E. coli (Escherichia coli—Extended spectrum beta-lactamase); CPO E. coli (KPC) (Escherichia coli—Carbapenemase-producing organism; Klebsiella pneumoniae carbapenemase); and CPO E. coli (NDM) (Escherichia coli—Carbapenemase-producing organism; New-Dehli Metallobetalactamase).
(§2) The ATCC (American Type Culture Collection) strains received from Cedarlane. Multi drug resistant (MDR) strains, as clinical isolates, were received from the laboratory of Dr. Linda Hoang.
(§3) Putative antimicrobial peptides were synthesized by GeneScript. A-list antimicrobial peptides re-synthesized by GeneScript. P2_CCH, P5_CCH, and P5_CCH_A19K were each synthesized under two conditions: standard synthesis using TFA, and the other with TFA-removal using acetate as a counter-ion. A MIC method, adapted for use with cationic antimicrobial peptides, was used to evaluate MIC antimicrobial activity (Hancock 1999).
(§4) The following data are presented to show the activity (MIC/MBC in μg/mL) of certain antimicrobial peptides described herein relative to a modified/synthetic version having a specified substitution. While data presented in tables above may be presented again, or may be represented in data provided in the tables below, such duplication is believed to assist the reader in readily noting comparisons. Different Run Numbers noted in the following tables denotes experiments conducted on different days, with each run reflecting multiple n values.

For assay [2], the system named is Escherichia coli—Carbapenemase-producing organism; New-Dehli Metallobetalactamase. Here is the method:
as §1, §2, §3, §4

Assay [3] concerns Escherichia coli—ATCC 25922 “wild type”. Here is the method:
as §1, §2, §3, §4

The test system of assay [4] is Salmonella Heidelberg (MDR).
Description: as §2, §3, §4

Assay [5] concerns Escherichia coli—Extended spectrum beta-lactamase. On the procedure:
as §1, §2, §3, §4

The test system of assay [6] is Escherichia coli: ATCC 9723H. The following applies: ATCC 9723. Here is the method: (§5) Microtiter broth dilution assays. HP2, HP3, and HP5 peptides are comprised of novel sequences that have not yet been described in the AMP literature. A common method for establishing antimicrobial activity of peptides is to perform microtiter broth assays. Microtiter broth dilution methods were implemented for determination of the minimum inhibitory concentration (MIC) and minimum bactericidal concentration (MBC). HP3 and HP5 were tested in addition to Ranatuerin-1/HP4 peptide as a positive control. HP2 could not be tested because multiple peptide synthesis attempts failed. The human cathelicidin, LL-37^30 was used as an additional positive control, and an unrelated similarly sized cationic peptide from the T. pallidum protein Tp0751 was used as a negative control. The potential AMPs were tested against bacteria representative of all three types of known cell envelope (Gram-positive, negative, and the complex and unique mycobacterial cell wall/envelope), given that a major mechanism used by AMPs is cell wall/membrane targeting.
(§6) Microtiter broth dilution assays. To test for antimicrobial activity, HP3, HP4/Ranatuerin-1, and HP5, peptides were synthesized by GenScript (Piscataway, New Jersey, USA). HP2 was not tested because the service provider was unable to synthesize this peptide despite multiple attempts. An unrelated, similarly-sized peptide from the Treponema pallidum protein Tp0751^55 was used as a negative control and the human cathelicidin, LL-37^30, was included as a positive control. Peptides were dissolved in filter-sterilized ultrapure water and tested for sterility by plating on non-selective agar plates followed by a 48 h incubation at 37° C. Two-fold serial dilutions of each peptide were prepared to obtain a series corresponding to ten times the required testing concentrations (2560, 1280, 640, 320, 160, 80, 40, 20, 10, and 5 μg/mL)^29.
(§7) Microtiter broth dilution methods were implemented for determination of the minimum inhibitory concentration (MIC) and minimum bactericidal concentration (MBC) of the four putative AMPs and the negative control peptide using procedures adapted from the R.E.W. Hancock Laboratory for cationic AMPs^29 and the CLSI methods for dilution antimicrobial susceptibility tests^56.
(§8) To assess antimicrobial activity across a diverse range of bacterial species, colonies were cultured overnight on Mueller Hinton agar plates (MHA; +5% sheep blood for S. pyogenes)^56 from frozen glycerol stock. Bacteria tested include Gram-negative rods (Escherichia coli: ATCC 9723H; Pseudomonas aeruginosa: ATCC 10148), Gram-positive cocci (Staphylococcus aureus: ATCC 6538P; Streptococcus pyogenes: unknown strain, hospital isolate), and Mycobacterium smegmatis (MC^2155; classified as neither Gram-positive nor Gram-negative). Bacterial suspensions were prepared by placing 3-5 morphologically similar colonies from the grown plate into sterile glass culture tubes containing 2 mL of Mueller Hinton Broth (MHB; +5% lysed horse blood for S. pyogenes) 56. Microbial inoculums from bacterial suspensions were prepared through a spectrophotometric adjustment of turbidity to 0.08-0.1 at 600 nm to achieve a turbidity equivalent to that of a 0.5 McFarland standard (1-2×10^8 CFU/mL)^29. The standardized bacterial inoculums were then diluted in MHB to obtain final cell densities of approximately […].
(§9) Ninety-six-well microtiter plates (Fisher Cat. No. CS003790; Nepean, Ontario, Canada) were prepared with 100 μL of E. coli, P. aeruginosa, S. aureus, S. pyogenes, or M. smegmatis bacterial suspension (5×10^5 CFU/mL) dispensed into each well of columns 1 through 11. Eleven microliters of the 10×AMP dilution series for all four peptides were added to each well from column 1 (2560 μg/mL) to column 10 (5 μg/mL) in all plates. Column 11 functioned as a positive control for bacterial growth in the absence of AMPs. Column 12 in each plate contained 100 μL of MHB as a sterility control (+5% lysed horse blood for S. pyogenes)^56. […]

Assay [7] deals with Staphylococcus aureus: ATCC 6538P. The following applies: ATCC 6538. Here is the method: as §5, §6, §7, §8, §9
In assay [8] the test system is Mycobacterium smegmatis (MC^2155). As to conditions: Mycobacterium (MC^2155). On the procedure:
as §5, §6, §7, §8, §9

For assay [9], the system named is Streptococcus pyogenes: unknown strain, hospital isolate. As to conditions: unknown strain, hospital isolate. Here is the method: as §5, §6, §7, §8, §9
Assay [10] relates to Pseudomonas aeruginosa: ATCC 10148. As to conditions: ATCC 10148. On the procedure:
as §5, §6, §7, §8, §9

≈ marks a conversion by molar mass, not a printed value. Like-named read-outs stand apart in the source and are kept apart here. Ends that are not written are not given here. Peptide text beside a SMILES is read from it.

For the molecule `CC(C)C[C@H](NC(=O)[C@H](CS)NC(=O)[C@@H]1CCCN1C(=O)[C@H](CCCCN)NC(=O)[C@H](CCCNC(=N)N)NC(=O)[C@@H]1CCCN1C(=O)[C@H](Cc1ccccc1)NC(=O)[C@H](CO)NC(=O)[C@H](CCCCN)NC(=O)[C@@H](NC(=O)[C@H](Cc1c[nH]c2ccccc12)NC(=O)[C@H](CS)NC(=O)CNC(=O)[C@H](CCCNC(=N)N)NC(=O)[C@H](CC(C)C)NC(=O)[C@@H](N)CO)[C@@H](C)O)C(=O)N[C@@H](CCCNC(=N)N)C(=O)N[C@@H](CC(N)=O)C(=O)N[C@@H](CCCNC(=N)N)C(=O)O` [HP3_S3R] (H-SLRGCWTKSFPRKPCLRNR-OH; N-terminus and C-terminus assumed), the MBC in assay [1] was determined as 256 µg/mL (≈ 111 µM). The values for the MIC in [1], in [2] and in assay [3] were 256 µg/mL (≈ 111 µM), 128 µg/mL (≈ 55.5 µM) and 128 µg/mL (≈ 55.5 µM), respectively.

As for `CC[C@H](C)[C@H](NC(=O)CNC(=O)[C@@H](NC(=O)[C@@H](NC(=O)[C@H](CCCCN)NC(=O)CNC(=O)[C@@H](NC(=O)[C@H](CCCCN)NC(=O)[C@H](CCCCN)NC(=O)[C@@H](NC(=O)[C@@H](NC(=O)[C@H](CC(=O)O)NC(=O)[C@H](CC(C)C)NC(=O)[C@H](CC(C)C)NC(=O)CN)[C@@H](C)CC)[C@@H](C)CC)[C@@H](C)O)[C@@H](C)O)[C@@H](C)O)C(=O)N[C@@H](CC(C)C)C(=O)N[C@@H](CCSC)C(=O)N[C@@H](CC(=O)O)C(=O)N[C@H](C(=O)N[C@@H](CC(C)C)C(=O)N[C@@H](CCCCN)C(=O)N[C@@H](CS)C(=O)N[C@@H](CS)C(=O)N[C@@H](CCSC)C(=O)N[C@H](C(=O)NCC(=O)N[C@@H](CCCNC(=N)N)C(=O)N[C@@H](CS)C(=O)N1CCC[C@H]1C(=O)N1CCC[C@H]1C(=O)N[C@@H](CO)C(=O)N[C@@H](CO)C(=O)O)[C@@H](C)O)[C@@H](C)O` [P3_CCH_D8K_Q23C] (H-GLLDIIKKTGKTTGILMDTLKCCMTGRCPPSS-OH; N-terminus and C-terminus assumed), the MIC in assay [4] was found to be 256 µg/mL (≈ 75.7 µM); in [2], 128 µg/mL (≈ 37.8 µM); in assay [3], 64 µg/mL (≈ 18.9 µM). Moreover, the “Minimum Inhibitory Concentration (MIC)” value in assay [5] is 64 µg/mL; in assay [1], 64 to 128 µg/mL; in assay [2] (CPO E. coli NDM, Gram negative) it was 128+ ug/mL; in assay [3] it was 64 µg/mL. Further, the MBC in assay [2] came to 128 µg/mL (≈ 37.8 µM); in [3] it was 64 µg/mL (≈ 18.9 µM).

`CC[C@H](C)[C@H](NC(=O)[C@H](CCCCN)NC(=O)[C@@H](NC(=O)[C@H](C)NC(=O)[C@H](Cc1ccccc1)NC(=O)[C@H](CC(=O)O)NC(=O)[C@H](CCCCN)NC(=O)CNC(=O)[C@@H](NC(=O)[C@@H](NC(=O)[C@H](CCCCN)NC(=O)[C@@H](NC(=O)[C@@H](NC(=O)[C@H](CC(=O)O)NC(=O)[C@H](CC(C)C)NC(=O)[C@H](CC(C)C)NC(=O)CN)[C@@H](C)CC)[C@@H](C)CC)[C@@H](C)O)[C@@H](C)O)C(C)C)C(=O)N[C@@H](CC(C)C)C(=O)N[C@@H](CC(=O)O)C(=O)N[C@@H](CC(N)=O)C(=O)N[C@@H](CC(C)C)C(=O)N[C@@H](CCCCN)C(=O)N[C@@H](CS)C(=O)N[C@@H](CCCCN)C(=O)N[C@@H](CC(C)C)C(=O)N[C@@H](C)C(=O)NCC(=O)NCC(=O)N[C@@H](CS)C(=O)N1CCC[C@H]1C(=O)N1CCC[C@H]1C(=O)O` [Peptide P4_CCH] (H-GLLDIIKTTGKDFAVKILDNLKCKLAGGCPP-OH; N-terminus and C-terminus assumed): the MIC was 256 µg/mL (≈ 78.9 µM) in assay [4]; 32 µg/mL (≈ 9.87 µM) in assay [1]; 128 µg/mL (≈ 39.5 µM) in assay [6]; above 256 µg/mL in [7]; 8 µg/mL (≈ 2.47 µM) in assay [8]; 256 µg/mL (≈ 78.9 µM) in assay [9]. The MIC in assay [10] is above 256 µg/mL. The “Minimum Inhibitory Concentration (MIC)” value is 64 µg/mL in [5], 32 µg/mL in assay [1], 64 to 128 µg/mL in assay [2] and 32 to 64 µg/mL in [3]. In addition, the MBC in assay [1] is 64 µg/mL (≈ 19.7 µM); in assay [6], 128 µg/mL (≈ 39.5 µM); in [7], above 256 µg/mL; in assay [8], above 256 µg/mL; in [9], 256 µg/mL (≈ 78.9 µM); in assay [10], above 256 µg/mL.

On to `CC[C@H](C)[C@H](NC(=O)[C@H](C)NC(=O)[C@@H]1CCCN1C(=O)[C@@H](N)Cc1ccccc1)C(=O)N[C@H](C(=O)N[C@@H](CS)C(=O)N[C@@H](CCCCN)C(=O)N[C@H](C(=O)N[C@@H](CO)C(=O)N[C@@H](CCCCN)C(=O)N[C@@H](CCCCN)C(=O)N[C@@H](CS)C(=O)O)C(C)C)[C@@H](C)CC` [Peptide P8_CCH_N11K, FPAIICKVSKKC] (H-FPAIICKVSKKC-OH; N-terminus and C-terminus assumed), for which the MBC in [5] and in [2] was 128 µg/mL (≈ 95.8 µM) each time. For the same molecule, the MIC in assay [5] and in [2] was 128 µg/mL (≈ 95.8 µM) throughout.

Regarding “ATAWRIPPPGMQPIIPIRIRPLCGKQ [Peptide P7_CCH]”, the MIC in [2] is 256 µg/mL; in assay [6], above 256 µg/mL; in assay [7] it was above 256 µg/mL; in [8], 32 µg/mL; in [9] it was above 256 µg/mL; in assay [10], above 256 µg/mL. Also, the MBC in assay [6], in [7], in [8], in assay [9] and in assay [10] was above 256 µg/mL in each case.
